Experimental data published in the NIST ThermoML archive (doi:10.1021/acs.jced.8b01110).
Numbers after ± are expanded uncertainties.

How the values were obtained:
[1] = wn = mass fraction of the nth substance listed; details: 313.15 K, 88.4 kPa, Liquid; for viscosity: Capillary tube (Ostwald / Ubbelohde) method; for mass density: Pycnometric method
[2] = refractive index (Na D-line) (dimensionless); wn = mass fraction of the nth substance listed; details: 313.15 K, 88.4 kPa, Liquid, Standard Abbe refractometry

Row | SMILES | viscosity ([1]; w1 = 0.5082) | mass density ([1]; w1 = 0.5082) | refractive index ([2]; w1 = 0.5082) | viscosity ([1]; w1 = 0.3289) | mass density ([1]; w1 = 0.3289) | refractive index ([2]; w1 = 0.3289)
1 | O=[N+]([O-])[O-].[Na+] [sodium nitrate] + O | 2.14 ± 0.43 mPa·s | 1408.4 ± 10 kg/m3 | 1.39164 ± 0.00086 | – | – | –
2 | O=S(=O)([O-])[O-].[Na+].[Na+] [sodium sulfate] + O | – | – | – | 2.703 ± 0.54 mPa·s | 1317 ± 10 kg/m3 | 1.37791 ± 0.00085
